Tested on: PAR2[F154A], PAR2[G157C]
Experiment: Ca^2+ flux assay, inhibition of trypsin in 1321N1 cells transiently transfected with PAR2 [WT], [F154A] or [G157C]
Type: cell-based, human
Details: [F154A and G157C], monophasic
Experimental: Cell culture reagents were purchased from ThermoFisher Scientific unless otherwise stated. The parental 1321N1 cell line was obtained from ECACC. 1321N1 cells, stably expressing the human PAR2 receptor, (1321N1-hPAR2) were routinely cultured in Dulbecco’s Modified Eagle Medium (DMEM) supplemented with GlutaMax-1 containing 10% fetal bovine serum (FBS) and G418 (600 µg ml^−1). U2OS cells, stably expressing human PAR2 (U2OS-hPAR2, 93-0235C3, DiscoverX/Eurofins) were routinely cultured in McCoy’s 5A media containing 10% FBS, G418 (500 µg ml^−1) and Hygromycin B (250 µg ml^−1). Rodent PAR2 was assessed in rat KNRK cells (ATCC) cultured in DMEM with 10% FBS supplemented with 2 mM L-Glutamine. Human PAR2 was assessed in HT-29 cells (ECACC) cultured in DMEM with 10% FBS supplemented with penicillin (50 U ml^−1) and streptomycin (50 µg ml^−1). […]
For evaluation of Ca^2+ mobilisation, 1321N1-hPAR2 cells were seeded in 384-well CellBIND plates (Corning) at 4000 cells per well in DMEM containing 10% FBS and incubated for 18–24 hours at 37 °C, 5% CO2 and 95% humidity. […] Inhibition of Ca^2+ release on rat PAR2 was measured in the same way using 10 000 KNRK cells per well seeded in poly-D-lysine coated 384-well plates (Greiner), 30 min preincubation with the compound before activation of PAR2 with EC80 of SLIGRL-NH2 (120 µM) and real-time detection of Ca^2+. […]

With `C[C@@H](C1CCCCC1)n1c(-c2cc3c(cc2Br)OCO3)nc2cc(C(=O)Nc3ccc(C#N)cc3)ccc21` [AZ3451] the “inhibition of trypsin-induced PAR2 activation at mutant receptors pIC50” value was 6.

Source: article PMC7747594, “Protease-activated receptor-2 ligands reveal orthosteric and allosteric mechanisms of receptor inhibition” (Communications Biology, 2020)
